Columns and labels:
Assay type in all cases: in vivo
[1] = Body weight of C57BL/6J mice fed a high-fat diet containing vegetable lipids (palm oil, olive oil, soybean oil, margarine) with or without 5% allulose for 8 weeks; conditions: with allulose (5%), mean (SE in cell below); for Initial body weight: 0th week
Description: Twenty C57BL/6J mice (male, 4-week-old) were purchased from The Jackson Laboratory (USA) and used. After the animals were acclimated to the feeding environment with a lab-chow diet (Purina Co., USA) for 4 weeks, they were divided by a randomized block design into two groups: a negative control group without the ingestion of allulose (n=10/one kind of lipid); and a test group with the ingestion of allulose (n=10/one kind of lipid) and they were fed with the diets for 8 weeks. For the negative control group, the high-fat diet was applied to the AIN-76 diet, and the vegetable lipids [palm oil ([…], Malaysia), olive oil (CJ CheilJedang Corp., South Korea), soybean oil (CJ CheilJedang Corp., South Korea), margarine (Ottogi Foods Co., Ltd., 'Corn margarine', raw materials: consisted of 80 wt % of vegetable lipids (palm olein oil, palm stearin oil, coconut oil, corn oil)] were included. For the test group, among the ingredients of the diet for the negative control group, 5 wt % of sucrose was replaced with allulose (crystalline allulose, 98 wt % of allulose based on dry solids, CJ CheilJedang Corporation) (Table 1). All the animal experiments were carried out under the approval of the Ethics Committee for Animal Studies at Kyungpook National University, South Korea (approval no. KNU-2013-18). All groups were allowed to ingest the iso-energetic diet of the same level by pair feeding based on the test group so as to exclude the calorie-reducing effect due to the allulose and the diets were kept refrigerated at 4° C. during the feeding period. The animals were housed in an individual cage under constant temperature (25±2° C.), constant humidity (50±5%), and a 12 h dark-light cycle. Dietary intake was measured at a constant time every day, and the body weight was measured at a constant time every week.

[2] = Fecal lipid excretion (triglycerides, cholesterol, free fatty acids) in C57BL/6J mice fed a high-fat diet containing vegetable lipids with or without 5% allulose for 8 weeks; conditions: in words
Description: Twenty C57BL/6J mice (male, 4-week-old) were purchased from The Jackson Laboratory (USA) and used. After the animals were acclimated to the feeding environment with a lab-chow diet (Purina Co., USA) for 4 weeks, they were divided by a randomized block design into two groups: a negative control group without the ingestion of allulose (n=10/one kind of lipid); and a test group with the ingestion of allulose (n=10/one kind of lipid) and they were fed with the diets for 8 weeks. For the negative control group, the high-fat diet was applied to the AIN-76 diet, and the vegetable lipids [palm oil ([…], Malaysia), olive oil (CJ CheilJedang Corp., South Korea), soybean oil (CJ CheilJedang Corp., South Korea), margarine (Ottogi Foods Co., Ltd., 'Corn margarine', raw materials: consisted of 80 wt % of vegetable lipids (palm olein oil, palm stearin oil, coconut oil, corn oil)] were included. For the test group, among the ingredients of the diet for the negative control group, 5 wt % of sucrose was replaced with allulose (crystalline allulose, 98 wt % of allulose based on dry solids, CJ CheilJedang Corporation) (Table 1). All the animal experiments were carried out under the approval of the Ethics Committee for Animal Studies at Kyungpook National University, South Korea (approval no. KNU-2013-18). […] To remove the turbidity occurring from the development with 3 mM cholic acid (sodium salt), 0.5% Triton X-100 as an emulsifier was mixed with an enzyme test solution during the quantification of total cholesterol and neutral lipids. […] For the quantification of both free cholesterol (FC) and ester-type cholesterol (CE) in the feces, CE was converted by cholesterol esterase into FC and fatty acids. […] The resulting product and H2O2 which is the substrate were subjected to the reaction with peroxidase, phenol, and 4-amino-antipyrine to obtain a color developing material and the absorbance was measured at 500 nm. Quantification was carried out by comparing the measured value with the cholesterol standard curve. […]

[3] = Fecal lipid excretion (triglycerides, cholesterol, free fatty acids) in C57BL/6J mice fed a high-fat diet containing creamer with or without 5% allulose for 8 weeks; conditions: allulose consumed along with vegetable lipids in the creamer, in words
Description: Sixteen C57BL/6J mice (male, 4-week-old) were purchased from The Jackson Laboratory (USA) and used. After the animals were acclimated to the feeding environment with a lab-chow diet (Purina Co., USA) for 4 weeks, they were divided by a randomized block design into two groups: a negative control group without the ingestion of allulose (PR, n=8); and a test group with the ingestion of allulose (PRA, n=8) and they were fed with the diets for 8 weeks. […] To remove the turbidity occurring from the development with 3 mM cholic acid (sodium salt), 0.5% Triton X-100 as an emulsifier was mixed with an enzyme test solution during the quantification of total cholesterol and neutral lipids. […] For the quantification of both free cholesterol (FC) and ester-type cholesterol (CE) in the feces, CE was converted by cholesterol esterase into FC and fatty acids. […] The resulting product and H2O2 which is the substrate were subjected to the reaction with peroxidase, phenol, and 4-amino-antipyrine to obtain a color developing material and the absorbance was measured at 500 nm. Quantification was carried out by comparing the measured value with the cholesterol standard curve. […]

O=C(CO)C(O)C(O)C(O)CO [allulose, Allulose (D-psicose)]
Initial body weight ([1]; HFD + margarine): 21.57± | Body weight on 8th week ([1]; HFD + margarine): 32.30± | Initial body weight ([1]; HFD + olive oil): 21.28± | Body weight on 8th week ([1]; HFD + olive oil): 28.87± | Initial body weight ([1]; HFD + palm oil): 21.62± | Body weight on 8th week ([1]; HFD + palm oil): 29.57± | Initial body weight ([1]; HFD + soybean oil): 21.23± | Body weight on 8th week ([1]; HFD + soybean oil): 28.84± | Cholesterol content in the feces / excretion of cholesterol ([2]; HFD + soybean oil with 5% allulose compared to the SO group): increased | Fecal excretion of lipids ([2]; allulose consumed along with each of palm oil, olive oil, soybean oil, and margarine): promoted | Effect of excreting lipids compared to ingestion of allulose along with other vegetable lipids ([2]; allulose taken together with soybean oil): excellent | Fecal excretion of lipids [3]: promoted

Reference: patent publication US20200170269A1, “ALLULOSE-CONTAINING COMPOSITION FOR PROMOTING EXCRETION OF VEGETABLE LIPIDS FROM THE BODY” (CJ CHEILJEDANG CORPORATION, priority 2016, published 2020)
